Data published in patent publication US12569470B2, “Vasodilator and use thereof” (Bioradical Research Institute Corp., priority 2019, dated 2026).

Columns and labels:
[1] = tested on: superoxide produced by the neutrophils; test: Superoxide-eliminating ability of PBS solutions before and after storage for 10 days; type: cell-based, human; settings: PBS solution stored for 10 days versus immediately after preparation, 0-200 μmol/1, FIG. 4
Procedure: (§1) First, ED2AP, BisEp-C3, edaravone, BisEp-C1, or BisEp-C1 (H2) was added to a neutrophil of 4×10^5 cells per sample so as to achieve a predetermined concentration (0, 12.5, 25, 50, 100, or 200 μmol/1, or 0, 125, 250, 500, 1,250, 2,500 or 5,000 μmol/1) with […] of CLA, and then the cell suspension was seeded in flat-bottomed 96-well plates. The volume of the suspension was 200 μl/well, and phenol red-free Ca+, Mg+ HBSS was used as the solution. In addition, the neutrophil was stimulated by adding PMA so as to achieve a concentration of 100 ng/ml. After the stimulation, a plate reader (Envision 2104 Multilabel Reader produced by Perkin Elmer Co., Ltd.) was used to measure the chemiluminescence value over time for 30 minutes with the PMA stimulation time being a reference. The measurement interval was 30 seconds. […] In addition, as a control, the superoxide production amount was measured in the same manner except that each compound was not added. The relative value of the superoxide production amount when each compound was added was calculated with the superoxide production amount of the control being 100.
PBS solutions of ED2AP, BisEp-C3, and edaravone were prepared in the same manner as in Example 2 and stored for 10 days. […] Then, the relative value of the superoxide production amount of each sample was calculated with the superoxide production amount of the sample of 0 μmol/1 being 100.

rat neuroid cells B50 [2] = test: Toxicity evaluation, cell viability by Alamar Blue; type: cell-based; settings: 12.5, 25, 50, 100, or 200 μmol/1, 24 hours, FIG. 5
Procedure: Rat neuroid cells B50 were seeded in 12-well plates and then cultured. Edaravone (RC), ED2AP, or BisEp-C3 was added to each well so as to achieve a predetermined concentration (12.5, 25, 50, 100, or 200 μmol/1), and then incubated for 24 hours at 37° C. and 5% CO2. Cell viability in each well after the culture was measured using Alamar Blue.

rat neuroid cells B50 [3] = test: Cytoprotection against singlet oxygen (Rose Bengal + G-LED), Alamar Blue fluorescence; type: cell-based; settings: 0, 12.5, 25, 50, or 100 μmol/1, RB 200 nmol/1 + G-LED 5 minutes, negative control being 100, FIG. 3
Procedure: Edaravone, ED2AP and BisEp-C3 were examined for whether they had the function of alleviating neuronopathy. Specifically, singlet oxygen was generated by combining Rose Bengal (RB), which is a sensitizer, with green light (G-LED), and the function of alleviating the cytotoxicity of the generated singlet oxygen was examined with the cellular activity being an indicator.
First, rat neuroid cells B50 were cultured in 12-well dishes at 2×10^5 cells/well (medium: RPMI-1640 medium containing 5% FCS) overnight. After the culturing, the medium of each well was replaced with HBSS (1,000 μl/well; phenol red-free Ca+, Mg+) containing 200 nmol/1 RB and edaravone, ED2AP, or BisEp-C3 having a predetermined concentration (0, 12.5, 25, 50, or 100 μmol/1). The dish was then irradiated with G-LED for 5 minutes to generate singlet oxygen. Thereafter, the medium of each well was replaced with 1,000 μl of HBSS, and Alamar Blue was added. The dish was then allowed to react for about 2 hours in an incubator at 37° C. and 5%CO2. After the reaction, fluorescence intensity (excitation wavelength: λ- 560 nm, fluorescence wavelength: λ-595 nm) was measured with a plate reader (infinite200, Tecan Trading AG). In this experimental system, the higher the cellular activity, the more Alamar Blue is taken up and the higher the fluorescence intensity. As a control, fluorescence intensity was measured in the same manner except that sodium azide (Azide, NaN3) was added instead of the compounds so as to achieve a concentration of 4 mmol/1. As a negative control (NC), fluorescence intensity was measured in the same manner except that RB was not added. The relative value of the fluorescence intensity in the sample to which each compound was added was calculated with the fluorescence intensity of the negative control being 100.

[4] = tested on: superoxide produced by the neutrophils; test: Superoxide production amount of PMA-stimulated neutrophils, CLA chemiluminescence; type: cell-based, human; settings: 0-200 or 0-5,000 μmol/1, PMA 100 ng/ml, 30 minutes, control being 100, FIG. 2
Procedure: For examining the reactive oxygen-eliminating effect of the vasodilator of the present invention, the superoxide produced by the neutrophils when the neutrophils isolated from the peripheral blood of healthy individuals were stimulated with PMA (phorbor-12-myristate-13-acetate) was used. The superoxide production amount was measured by chemiluminescence using CLA (2-methyl-6-phenyl-3, 7-dihydroimidazo[1,2-α]pyrazine-3-one).
as §1, with “In addition, the neutrophil was stimulated by adding PMA so as to achieve a concentration of 100 ng/ml.” left out, “reference.” for “reference. The measurement interval was 30 seconds.”

rat neuroid cells B50 [5] = test: Toxicity evaluation on byproducts after reaction with singlet oxygen; type: cell-based; settings: byproducts after reaction with singlet oxygen, 50, 100, or 200 μmol/1, FIG. 6
Procedure: In a cell-free system, the RB was added to media (5% FCS-containing RPMI-1640 media) containing edaravone, ED2AP, and BisEp-C3 having a predetermined concentration (50, 100, or 200 μmol/1) and then irradiated with LED (G-LED) at 525 nm to generate singlet oxygen, whereby reacting each compound with singlet oxygen. The cell viability was measured in the same manner as in Example 7(1), except that the culture solution after the reaction was used as a medium of the neuroid cell B50. As a negative control (NC), the cell viability was measured in the same manner except that each compound and […] were not added in the cell-free system. Further, as a control (RB), the cell viability was measured in the same manner except that each compound was not added and only […] was added in the cell-free system.

CC1=NN(c2ccccc2)C(=O)/C1=C/C=C/c1c(C)nn(-c2ccccc2)c1O [ED2AP, 2,4-dihydro-4-[3-(5-hydroxy-3-methyl-1-phenyl-1H-pyrazol-4-yl)-2-propen-1-ylidene]-5-methyl-2-phenyl-3H-pyrazol-3-one]
superoxide-eliminating ability after storage [1]: maintained the superoxide-eliminating ability equivalent to that immediately after preparation | cell viability (cytotoxicity) (rat neuroid cells B50 [2]): not cytotoxic at any concentration | relative value of the fluorescence intensity (rat neuroid cells B50 [3]): recovered in a concentration-dependent manner | relative value of the superoxide production amount [4]: remarkably suppressed superoxide production amount | cell viability (cytotoxicity of byproducts) (rat neuroid cells B50 [5]): not cytotoxic at any concentration

CCN1N=C(C)/C(=C\C=C\c2c(C)nn(CC)c2O)C1=O [BisEp-C3, 2,4-dihydro-4-[3-(1-ethyl-5-hydroxy-3-methyl-1H-pyrazol-4-yl)-2-propen-1-ylidene]-2-ethyl-5-methyl-3H-pyrazol-3-one]
superoxide-eliminating ability after storage [1]: maintained the superoxide-eliminating ability equivalent to that immediately after preparation | cell viability (cytotoxicity) (rat neuroid cells B50 [2]): not cytotoxic at any concentration | relative value of the fluorescence intensity (rat neuroid cells B50 [3]): recovered in a concentration-dependent manner | relative value of the superoxide production amount [4]: remarkably suppressed superoxide production amount | cell viability (cytotoxicity of byproducts) (rat neuroid cells B50 [5]): not cytotoxic at any concentration
